Earlier results, collected in patent US20180169018A1, “Method for improving the dissolution profile of a biologically active material” (iCeutica Pty Ltd., priority 2009, published 2018).

Conditions: absorption by the body

Tmax: 4 to 5 h
Compound: Cc1cnc(NC(=O)C2=C(O)c3ccccc3S(=O)(=O)N2C)s1 [Meloxicam, meloxicam]
